Two compounds from patent publication US20240252418A1, “Additives (Adjuvants, Anti Freezing Agents, Antimicrobial and Antioxidants) in Natural Deep Eutectic Solvents and Mixtures” (Bioeutectics Corporation, priority 2023, published 2024) can be followed below.

Data set [1] is described as follows: Solubility test for common agro actives. The conditions noted are these: 14% w/w analyte/solvent, 30° C., vortex and ultrasound. The protocol:
Solubility test (for common agro actives) was carried out at the working concentration of 14% w/w analyte/solvent, initially in traditional solvents and then in our selected solvents, at 30° C. and assisted by vortex and ultrasound.

Data set [2] is described as follows: Wetted area of droplets on a paper sheet (pure systems). It is filed as physicochemical. The conditions noted are these: 5 μL drop. The protocol: (§1) A general procedure was developed to evaluate the wetted area of droplets. The test system was prepared with 1% of the eutectic products in water, and a miscible dye, which allowed the visualization of the wetted area droplets. To compare the ability of the pure systems to a known adjuvant, TX (Triton X-100), a nonionic surfactant that has a hydrophilic polyethylene oxide chain with, on average, 9.5 ethylene oxide units) was used and was prepared under the same conditions and compared with a water/dye blank.

A short description of data set [3]: Evaporation time measurements. It is filed as physicochemical. To be noted: 5 μL drop of 1% solution in H2O, glass slide, room temperature. How it is done: Evaporation time was analyzed after applying 5 μL (one drop) of a 1% solution in water, on a glass slide at room temperature.
Data set [4] in a line: Wetted area on a paper sheet (mixture systems with TX). It is filed as physicochemical. How it is done:
as §1
With the results from the pure systems on paper and a waxy leaf shown in tables 1 and 2, a subsequent test was performed wherein mixtures of the products of the present invention with TX were compared on a paper sheet. Mixtures comprising TX and the products under study were evaluated at 0.9, 0.75, 0.50, 0.25, and 0.10% (1% total concentration). […] Compared to TX/water, the mixture with TX/BOA (50/50%) increased the wetted area by around 190%, systems with TX/BOA and TX/BOA (75/25%) increased the wetted area by around 180%, while TX/BOA (25/75%) increased the wetted area by around 150% (see Table 3).

Data set [5] has as its system waxy leaves of Epipremnum aureum. The experiment in a line: Wetted area of droplets on waxy leaves. The class given is physicochemical. The protocol: as §1
In a subsequent experiment, the wetted area of droplets was tested on waxy leaves of Epipremnum aureum. The quantitative results of those tests appear in Table 2.

[6] abbreviates: Component A TX 0.1% + Component B 0.9%.
Setting [7] is: Component A TX 0.25% + Component B 0.75%.
The mark [8] stands for this setting: Component A TX 0.5% + Component B 0.5%.
The mark [9] stands for this setting: Component A TX 0.75% + Component B 0.25%.
Where [10] appears, read: Component A TX 0.9% + Component B 0.1%.

For the compound `CCNc1nc(Cl)nc(NC(C)(C)C)n1` [Terbutylazine], in data set [1], the “Solubility in the selected solvents” value is “Soluble in 9 of our tested solvents”.
For Triton X-100 [TX], the entries for the “Relative size (%) with reference to H2O” value in data set [2] (1% in water) and in data set [5] were 424.82% and 333.18%, respectively. Further, the “Relative size (%) with reference to TX” value in data set [2] (1% in water) and in data set [5] was 100.00% in each case. Besides, the Area in data set [2] (1% in water with dye) is 23.98 mm^2; in data set [4] (setting [6]), 18.05 mm^2; in data set [4] (setting [7]) it was 18.99 mm^2; in data set [4] (setting [8]) it was 17.78 mm^2; in data set [4] (setting [9]), 17.84 mm^2; in data set [4] (setting [10]) it was 15.81 mm^2. In addition, the “Evaporation time” value in data set [3] stood at 19.73 min. Further, the “The relative evaporation time with reference to TX (min)” value in data set [3] is on record as 1.00. Moreover, the “Relative size (%) with reference to TX/H2O” value in data set [4] (setting [6]), in data set [4] (setting [7]), in data set [4] (setting [8]), in data set [4] (setting [9]) and in data set [4] (setting [10]) was 100.00% throughout.
